Target: T1, TtAbf62 (Thermothelomyces thermophilus, UniProt G2QJQ6)
T1 construct: gene MYCTH_55982; GH62; 321 residues with signal peptide MRPTRPGIVLLATATSVAG (1-19), replaced by alpha-factor signal (strain alpha-ABF); codon-optimized, secreted by Pichia pastoris X-33 (pPICZalphaA); N-glycosylated, 45-60 kDa (35 kDa deglycosylated); no purification described
Experiment: HPLC of released arabinose
Assay type: biochemical
Details: 5 mg/mL substrate, 7.7 U/mL secreted enzyme, 50 mM sodium acetate pH 5.0, 60 °C, 1 h

T1 sequence (G2QJQ6 20-321): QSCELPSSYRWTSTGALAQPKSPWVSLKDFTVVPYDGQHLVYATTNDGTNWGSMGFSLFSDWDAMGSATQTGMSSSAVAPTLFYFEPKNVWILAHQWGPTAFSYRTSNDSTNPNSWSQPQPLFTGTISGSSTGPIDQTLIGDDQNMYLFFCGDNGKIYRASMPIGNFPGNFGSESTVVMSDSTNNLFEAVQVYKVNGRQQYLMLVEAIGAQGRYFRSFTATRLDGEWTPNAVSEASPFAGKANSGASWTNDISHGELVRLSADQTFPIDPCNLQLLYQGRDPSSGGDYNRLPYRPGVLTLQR

| SMILES | HPLC of released arabinose |
| --- | --- |
| OC[C@@H]1O[C@@H](O[C@H]2[C@H](O[C@@H]3CO[C@@H](O[C@@H]4COC(O)[C@H](O)[C@H]4O)[C@H](O)[C@H]3O)OC[C@@H](O)[C@@H]2O)[C@H](O)[C@H]1O (stereo partly drawn) [A^2XX, 2^3-α-L-arabinofuranosyl-xylotriose] | able to release arabinose from single-arabinofuranosyl arabinoxylo-oligosaccharides substrates (A^3X, A^2XX, and XA^3XX) |
| OC[C@@H]1O[C@@H](O[C@@H]2[C@@H](O)[C@H](O[C@@H]3COC(O)[C@H](O)[C@H]3O)OC[C@H]2O)[C@H](O)[C@H]1O (stereo partly drawn) [A^3X, 3^2-α-L-arabinofuranosyl-xylobiose] | able to release arabinose from single-arabinofuranosyl arabinoxylo-oligosaccharides substrates (A^3X, A^2XX, and XA^3XX) |
